Series [1] concerns the target porcine liver carboxylesterase (PLCE) (Sus scrofa, UniProt Q29550). In kind it is biochemical.
Series [2] deals with human leukocyte elastase (huLE) (Homo sapiens, UniProt P08246). The series is described as follows: biochemical. As to conditions: IC50 (μM) huLE.
For series [3], the target named is GS-7340 Ester Hydrolase (Homo sapiens, UniProt P10619). In kind it is biochemical.
Series [4] relates to MT-2 cells.
The subject of series [5] is WT HIV-1. The experiment in a line: microbe, parasite or virus in culture. In kind it is cell-based. To be noted: XTT-based cytopathic assay; read-out: EC50 WT HIV-1. (In general: Tetrazolium dyes change colour on reduction, which living cells bring about.)
For series [6], the system named is MT-2 cells. The source holds these as a separate data set.
Experiment in series [7]: not given
This is another data set of the same source.

The test system of series [8] is MT-2 cells, stimulated and quiescent PBMC.
Experiment in series [9]: not given
This is another data set of the same source.

The test system of series [10] is recombinant HIV-1 strains with resistance mutations in the protease gene. The experiment in a line: Cross-Resistance Profile Assay, whole panel. In kind it is cell-based.
Series [11] deals with quiescent PBMC.
For series [12], the system named is PBMC in human whole blood.
Series [13] has as its system recombinant HIV-1 10R 46I 82T 84V. The experiment in a line: Cross-Resistance Profile Assay. Format: cell-based. As to conditions: protease mutations 10R 46I 82T 84V.
The test system of series [14] is recombinant HIV-1 46I 47V 50V. The series is described as follows: microbe, parasite or virus in culture. Format: cell-based. To be noted: protease mutations 46I 47V 50V.
In series [15] the target is T1, recombinant HIV-1 protease (Human immunodeficiency virus type 1 group M subtype B, UniProt P04585).
T1 construct: Enzyme: recombinant HIV-1 protease expressed in E.Coli; purchased Bachem California, Inc. H-9040; host or cells: E. coli
The experiment in a line: biochemical. To be noted: Ki.

Series [16] relates to recombinant HIV-1 10I 48V 71V 82A 90M. The experiment in a line: microbe, parasite or virus in culture. Format: cell-based. As to conditions: protease mutations 10I 48V 71V 82A 90M.
For series [17], the system named is mutant HIV-1 I84V/L90M. The series is described as follows: Resistance Evaluation, I84V/L90M fold change. In kind it is cell-based. As to conditions: EC50 of mutant I84V/L90M relative to wild type; class symbols.
In series [18] the test system is wild-type HIV-1 strain IIIB. The experiment in a line: microbe, parasite or virus in culture. Format: cell-based. As to conditions: Human immunodeficiency virus 1, IIIB.
The test system of series [19] is recombinant HIV-1 46I 84A. The experiment in a line: Cross-Resistance Profile Assay. Format: cell-based. To be noted: protease mutations 46I 84A.
Series [20] deals with recombinant HIV-1 10I 84V 71V 73S 90M. The experiment in a line: microbe, parasite or virus in culture. Format: cell-based. To be noted: protease mutations 10I 84V 71V 73S 90M.
For series [21], the system named is recombinant HIV-1 48V 54V 71V 82S. The experiment in a line: microbe, parasite or virus in culture. As to conditions: protease mutations 48V 54V 71V 82S. In kind it is cell-based.
The subject of series [22] is recombinant HIV-1 10F 46I 71V 82T 90M. The series is described as follows: Cross-Resistance Profile Assay. As to conditions: protease mutations 10F 46I 71V 82T 90M. Format: cell-based.
Series [23] deals with recombinant HIV-1 10I 48V 54V 82A. The series is described as follows: microbe, parasite or virus in culture. In kind it is cell-based. As to conditions: protease mutations 10I 48V 54V 82A.
The subject of series [24] is recombinant HIV-1 54V 71V 82S. The experiment in a line: Cross-Resistance Profile Assay. In kind it is cell-based. To be noted: protease mutations 54V 71V 82S.
For series [25], the system named is recombinant HIV-1 30N 50S 82I 88D. The series is described as follows: microbe, parasite or virus in culture. Format: cell-based. As to conditions: protease mutations 30N 50S 82I 88D.
[26] abbreviates: resistance = 5-fold and higher change in EC50 of the mutant relative to wild-type, 11 mutant viruses.

Where two headings read alike, the source gives them in different places.

Chain of GS-7340 Ester Hydrolase (P10619 29-480): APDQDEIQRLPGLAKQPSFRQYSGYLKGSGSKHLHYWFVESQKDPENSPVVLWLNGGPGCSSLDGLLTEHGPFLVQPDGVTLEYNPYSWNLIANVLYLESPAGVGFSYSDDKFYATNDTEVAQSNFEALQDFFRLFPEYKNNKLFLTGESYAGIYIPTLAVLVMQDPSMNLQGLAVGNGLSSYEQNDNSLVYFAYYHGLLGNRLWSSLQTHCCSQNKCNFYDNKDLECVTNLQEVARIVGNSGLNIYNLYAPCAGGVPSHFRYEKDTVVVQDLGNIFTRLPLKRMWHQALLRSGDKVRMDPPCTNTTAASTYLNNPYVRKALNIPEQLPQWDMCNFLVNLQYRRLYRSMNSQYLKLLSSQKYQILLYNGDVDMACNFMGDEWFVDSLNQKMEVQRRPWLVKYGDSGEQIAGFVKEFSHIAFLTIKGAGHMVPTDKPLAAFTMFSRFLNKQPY
Chain of porcine liver carboxylesterase (PLCE) (Q29550 whole entry): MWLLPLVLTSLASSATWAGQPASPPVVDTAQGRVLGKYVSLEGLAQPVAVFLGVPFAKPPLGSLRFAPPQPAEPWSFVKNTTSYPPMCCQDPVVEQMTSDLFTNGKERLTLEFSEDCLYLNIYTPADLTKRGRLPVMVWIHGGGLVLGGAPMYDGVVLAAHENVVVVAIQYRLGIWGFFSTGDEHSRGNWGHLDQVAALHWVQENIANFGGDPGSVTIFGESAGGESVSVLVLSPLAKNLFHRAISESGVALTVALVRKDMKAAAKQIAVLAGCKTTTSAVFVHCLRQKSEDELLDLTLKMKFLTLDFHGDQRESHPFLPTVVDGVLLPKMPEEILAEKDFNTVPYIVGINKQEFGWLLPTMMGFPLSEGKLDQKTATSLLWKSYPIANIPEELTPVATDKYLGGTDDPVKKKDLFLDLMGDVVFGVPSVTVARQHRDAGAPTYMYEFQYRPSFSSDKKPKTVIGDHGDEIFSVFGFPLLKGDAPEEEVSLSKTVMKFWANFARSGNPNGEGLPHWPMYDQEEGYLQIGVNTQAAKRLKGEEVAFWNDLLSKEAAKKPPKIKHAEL
Chain of human leukocyte elastase (huLE) (P08246 30-267): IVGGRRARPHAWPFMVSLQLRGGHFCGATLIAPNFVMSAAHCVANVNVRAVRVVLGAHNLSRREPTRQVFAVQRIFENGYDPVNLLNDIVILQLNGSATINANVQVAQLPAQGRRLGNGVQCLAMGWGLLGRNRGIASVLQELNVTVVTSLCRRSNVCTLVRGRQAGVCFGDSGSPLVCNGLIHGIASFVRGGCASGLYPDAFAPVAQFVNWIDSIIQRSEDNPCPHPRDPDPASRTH

One may read the IC50 as the concentration that gives 50% inhibition. Turning to `O=c1oc(Cl)c(Cl)c2ccccc12` [3,4-dichloroisocoumarin], the values for the IC50 in series [1], in series [1] (read-out: IC50 (μM) PLCE) and in series [2] were 250 µM, 250 µM and 3 µM, respectively. For the same compound, the “Relative Activity (%)” value in series [3] (1 µM) was 100%; in series [3] (10 µM), 25%; in [3] (100 µM) it was 5%; in series [3] (1000 µM) it was under 2%.

The CC50 is the concentration giving 50% cytotoxicity. A higher CC50 goes with better tolerance by the cells. For `COc1ccc(S(=O)(=O)N(CC(C)C)C[C@@H](O)[C@H](Cc2ccc(P(=O)(O)O)cc2)NC(=O)O[C@H]2CO[C@H]3OCC[C@H]32)cc1` [Compound 27], in [4], the CC50 is over 100 µM.

The compound `CCOP(=O)(OCC)c1ccc(CC(NC(=O)OC2COC3OCCC23)C(O)CN(CC(C)C)S(=O)(=O)c2ccc(OC)cc2)cc1` (stereo not drawn) [Compound 28] registered a CC50 in [4] of 70 µM.

Broadly, the EC50 is the concentration giving half of the maximal effect. As for `CCCCOC(=O)C(C)NP(=O)(COc1ccc(CC(NC(=O)OC2COC3OCCC23)C(O)CN(CC(C)C)S(=O)(=O)c2ccc(OC)cc2)cc1)NC(C)C(=O)OCCCC` (stereo not drawn) [GS-16503], the “Dog Plasma T1/2” value amounted to 6.13 h and the “Dog Plasma T1/2, min” value was 6.13 h. Also, the EC50 in series [5] amounted to 0.016 µM. In [6], the “Metabolism (conversion to acid metabolites), dependence on concentration” value was “concentration-dependent” and the “increase in conversion to acid metabolites at 1 μM vs. 10 μM” value turned out to be 3 fold. In series [7], the “Human Serum T1/2” value was >>400 min and the “Human Serum T1/2, min” value was >>400 min. Moreover, the intracellular metabolites formed entry in series [8] is “Metabolite X and GS-8373”. In [9], the “PBMC Extract T1/2” value was 0.033 h and the “PBMC Extract T1/2, min” value is 0.033 h. For the same compound, the “Total No. of Resistant Viruses” value in series [10] (setting [26]) was 0. In series [11], the “Cell-Associated PI, Prodrug” value is reported as 0 pmol/mln cells; the “composition of metabolites in PBMC” value is “equimolar mixture of metabolite X and GS-8373”. Also, in [12], the “Intracellular Acid Metabolite Concentration” value stood at 279 ± 47 µM; the “Intracellular Concentration, Acid Metabolite” value was determined as 279 ± 47 µM; the “Intracellular Concentration, Prodrug” value was found to be 61 ± 40 µM; the “Intracellular Prodrug” value was determined as 61 ± 40 µM. In series [12], the “Intracellular Prodrug and Metabolites Concentration, Total” value was 340 ± 35 µM; the “Intracellular Prodrug and Metabolites Total” value amounted to 340 ± 35 µM; the “Major Intracellular Metabolites” value is reported as “X, GS-8373”.

Turning to `CCOC(=O)C(C)NP(=O)(COc1ccc(CC(NC(=O)OC2COC3OCCC23)C(O)CN(CC(C)C)S(=O)(=O)c2ccc(OC)cc2)cc1)Oc1ccccc1` (stereo not drawn) [GS-16571], the “Dog Plasma T1/2” value turned out to be 2.1 h and the “Dog Plasma T1/2, min” value was determined as 2.1 h. For the same compound, the EC50 in series [5] worked out at 0.022 µM. Further, in [7], the “Human Serum T1/2” value is listed as 110 min and the “Human Serum T1/2, min” value is on record as 110 min. In addition, the intracellular metabolites formed entry in series [8] was “Metabolite X and GS-8373”. For the same compound, in [9], the “PBMC Extract T1/2” value was 0.817 h and the “PBMC Extract T1/2, min” value was 0.817 h. Further, in series [10] (setting [26]), the “Total No. of Resistant Viruses” value is on record as 0. In series [12], the “Intracellular Acid Metabolite Concentration” value worked out at 319 ± 112 µM; the “Intracellular Concentration, Acid Metabolite” value stood at 319 ± 112 µM; the “Intracellular Concentration, Prodrug” value is 137 ± 62 µM; the “Intracellular Prodrug” value came out at 137 ± 62 µM. For the same compound, in [12], the “Intracellular Prodrug and Metabolites Concentration, Total” value turned out to be 432 ± 208 µM; the “Intracellular Prodrug and Metabolites Total” value was determined as 432 ± 208 µM; the “Major Intracellular Metabolites” value was “X, GS-8373”.

Consider `CCOC(=O)C(C)OP(=O)(COc1ccc(C[C@H](NC(=O)O[C@H]2CO[C@H]3OCC[C@H]32)[C@H](O)CN(CC(C)C)S(=O)(=O)c2ccc(OC)cc2)cc1)Oc1ccccc1` (stereo partly drawn) [GS-17394], for which the “Dog Plasma T1/2” value was 2.4 h and the “Dog Plasma T1/2, min” value was determined as 2.4 h. Moreover, the “Metabolism (conversion to acid metabolites), dependence on concentration” value in series [6] was “independent”. In addition, in series [7], the “Human Serum T1/2” value is 49 min and the “Human Serum T1/2, min” value is 49 min. Also, in [8], the intracellular metabolites formed result is reported as “Metabolite LX”. For the same compound, in [9], the “PBMC Extract T1/2” value amounted to 0.25 h and the “PBMC Extract T1/2, min” value stood at 0.25 h. In addition, in series [11], the “Cell-Associated PI, Prodrug” value worked out at 0 pmol/mln cells and the “composition of metabolites in PBMC” value is on record as “only metabolite LX”. Besides, in [12], the “Intracellular Acid Metabolite Concentration” value is 629 ± 303 µM; the “Intracellular Concentration, Acid Metabolite” value came out at 629 ± 303 µM; the “Intracellular Concentration, Prodrug” value is 69 ± 85 µM; the “Intracellular Prodrug” value turned out to be 69 ± 85 µM. In addition, in series [12], the “Intracellular Prodrug and Metabolites Concentration, Total” value stood at 698 ± 301 µM; the “Intracellular Prodrug and Metabolites Total” value worked out at 698 ± 301 µM.

By Ki is commonly meant a dissociation constant, usually derived from enzyme kinetics or from competition with a known ligand. Consider `Cc1cccc(C)c1OCC(=O)N[C@@H](Cc1ccccc1)[C@@H](O)C[C@H](Cc1ccccc1)NC(=O)[C@H](C(C)C)N1CCCNC1=O` [Lopinavir, reference compound], for which the “Fold Change in EC50 Relative to WT HIV-1” value in [13] was determined as 11 fold; in [14], 19 fold; in series [16], 4.5 fold; in series [19], 9 fold; in series [20], 11 fold; in series [21] it was 60 fold. The “Fold Change in EC50 Relative to WT HIV-1” value in [22] came out at 7.5 fold. Moreover, the “Total No. of Resistant Viruses” value in series [10] ({}) came to 6. In series [15], the Ki fell in the range of 10 to 100 pM. Further, in series [17], the I84V/L90M fold change result is recorded as “++ (>10 to ≦30)”. This compound also showed an EC50 in series [18] of under 0.05 µM.

With `CCC[C@@]1(CCc2ccccc2)CC(O)=C([C@H](CC)c2cccc(NS(=O)(=O)c3ccc(C(F)(F)F)cn3)c2)C(=O)O1` [Tipranavir, reference compound], the “Fold Change in EC50 Relative to WT HIV-1” value is reported as 5 fold in series [13]; 0.4 fold in series [23]; 0.5 fold in [14]; 3.5 fold in series [24]; 0.3 fold in series [16]; 0.5 fold in series [25]. In addition, the “Fold Change in EC50 Relative to WT HIV-1” value in series [19] was found to be 1 fold; in series [21], 2 fold; in series [22], 3 fold. The “Total No. of Resistant Viruses” value in series [10] ({}) was 1. Besides, in series [17], the I84V/L90M fold change entry was “+ (>3 to ≦10)”. The compound further showed an EC50 in series [18] of 0.05 to 0.5 µM.
